Calls of active or inactive are those of the source. The rule behind the calls is not given here.
Columns and labels:
[1] = test system: Mus musculus; assay: Anti-osteoporotic activity in Balb/c mouse assessed as inhibition of OVX-mediated decrease in bone marrow density in femur at 25 to 100 mg/kg, ip administered for 4 weeks daily by microcomputed tomography; type: functional, organism-based
[2] = test system: RAW264.7; assay: Inhibition of NF-kappaB signaling pathway in mouse RAW264.7 cells assessed as reduction in RANKL-induced Akt phosphorylation at 10 to 40 uM after 30 mins by Western blot method; type: cell-based
[3] = test system: RAW264.7; assay: Inhibition of RANKL-induced osteoclast differentiation in mouse RAW264.7 cells harboring AMPKalpha1 siRNA assessed as decrease in TRAP mRNA level at 20 uM after 24 hrs by qRT-PCR method; type: functional, cell-based
[4] = test system: Mus musculus; assay: Anti-osteoporotic activity in Balb/c mouse assessed as inhibition of OVX-induced TRAP mRNA expression level in bone marrow at 25 to 100 mg/kg, ip administered for 4 weeks daily by qRT-PCR method; type: functional, organism-based
[5] = test system: RAW264.7; assay: Inhibition of RANKL-induced osteoclast differentiation in mouse RAW264.7 cells assessed as TRAP activity after 5 days in presence of CAMKKbeta inhibitor STO609; type: functional, cell-based
[6] = test system: RAW264.7; assay: Inhibition of RANKL-induced osteoclast differentiation in mouse RAW264.7 cells harboring ERbeta siRNA assessed as decrease in TRAP activity at 20 uM after 5 days by microscopy; type: functional, cell-based
[7] = molecular target: 5'-AMP-activated protein kinase catalytic subunit alpha-1 (Mus musculus) (UniProt Q5EG47); assay: Activation of AMPKalpha1 in mouse RAW264.7 cells assessed as increase in AMPK phosphorylation at 10 to 40 uM after 24 hrs by Western blot method; type: cell-based
[8] = test system: RAW264.7; assay: Inhibition of NF-kappaB/p38 MAPK signaling pathway in mouse RAW264.7 cells assessed as reduction in RANKL-induced cathepsin K mRNA level after 24 hrs by qRT-PCR method; type: cell-based
[9] = test system: RAW264.7; assay: Inhibition of NF-kappaB signaling pathway in mouse RAW264.7 cells assessed as reduction in RANKL-induced IkappaB phosphorylation at 10 to 40 uM after 30 mins by Western blot method; type: cell-based
[10] = test system: RAW264.7; assay: Inhibition of RANKL-induced osteoclast differentiation in mouse RAW264.7 cells assessed as decrease in TRAP mRNA level at 20 uM after 24 hrs in presence of ERalpha antagonist MPP by qRT-PCR method; type: functional, cell-based
[11] = test system: RAW264.7; assay: Inhibition of RANKL-induced bone resorption in mouse RAW264.7 cells assessed as reduction in pit formation after 7 days by optical microscopy; type: functional, cell-based
[12] = test system: Mus musculus; assay: Anti-osteoporotic activity in Balb/c mouse assessed as decrease in OVX-induced structure model index in femur at 25 to 100 mg/kg, ip administered for 4 weeks daily by microcomputed tomography; type: functional, organism-based
[13] = test system: RAW264.7; assay: Inhibition of RANKL-induced osteoclast differentiation in mouse RAW264.7 cells harboring AMPKalpha1 siRNA assessed as decrease in c-Fos mRNA level at 20 uM after 24 hrs by qRT-PCR method; type: functional, cell-based
[14] = test system: Mus musculus; assay: Anti-osteoporotic activity in Balb/c mouse assessed as inhibition of OVX-mediated decrease in trabecular thickness in femur at 25 to 100 mg/kg, ip administered for 4 weeks daily by microcomputed tomography; type: functional, organism-based
[15] = test system: RAW264.7; assay: Inhibition of RANKL-induced osteoclast differentiation in mouse RAW264.7 cells harboring ERbeta siRNA assessed as decrease in size of TRAP-positive multinucleated cells at 20 uM after 5 days by microscopy; type: functional, cell-based
[16] = test system: RAW264.7; assay: Inhibition of RANKL-induced osteoclast differentiation in mouse RAW264.7 cells assessed as TRAP activity after 5 days in presence of PKA inhibitor H89; type: functional, cell-based
[17] = test system: RAW264.7; assay: Inhibition of RANKL-induced osteoclast differentiation in mouse RAW264.7 cells harboring ERalpha siRNA assessed as decrease in TRAP mRNA level at 20 uM after 24 hrs by qRT-PCR method; type: functional, cell-based
[18] = species on record: Homo sapiens; assay: Selectivity ratio of IC50 for recombinant human full length untagged ERbeta expressed in insect cells to IC50 for recombinant human full length untagged ERalpha expressed in insect cells
[19] = test system: RAW264.7; assay: Inhibition of NF-kappaB/p38 MAPK signaling pathway in mouse RAW264.7 cells assessed as reduction in RANKL-induced c-Fos protein expression level after 24 hrs by Western blot method; type: cell-based
[20] = test system: RAW264.7; assay: Inhibition of RANKL-induced osteoclast differentiation in mouse RAW264.7 cells assessed as decrease in NFATc1 mRNA level at 20 uM after 24 hrs in presence of ERbeta antagonist PHTPP by qRT-PCR method; type: functional, cell-based
[21] = test system: RAW264.7; assay: Inhibition of RANKL-induced osteoclast differentiation in mouse RAW264.7 cells harboring AMPKalpha1 siRNA assessed as decrease in number of TRAP-positive multinucleated cells after 5 days by microscopy; type: functional, cell-based
[22] = test system: RAW264.7; assay: Inhibition of RANKL-induced osteoclast differentiation in mouse RAW264.7 cells assessed as decrease in number of TRAP-positive multinucleated cells at 20 uM after 5 days in presence of ERalpha antagonist MPP by microscopy; type: functional, cell-based
[23] = test system: RAW264.7; assay: Inhibition of NF-kappaB/p38 MAPK signaling pathway in mouse RAW264.7 cells assessed as reduction in RANKL-induced TRAP mRNA level after 24 hrs by qRT-PCR method; type: cell-based
[24] = molecular target: Calcium/calmodulin-dependent protein kinase kinase 2 (Mus musculus) (UniProt Q8C078); assay: Inhibition of RANKL-induced CAMKKbeta phosphorylation in mouse RAW264.7 cells at 10 to 40 uM after 24 hrs by Western blot analysis; type: cell-based
[25] = test system: RAW264.7; assay: Inhibition of RANKL-induced osteoclast differentiation in mouse RAW264.7 cells assessed as TRAP activity after 5 days in presence of estrogen receptor antagonist fulvestrant; type: functional, cell-based
[26] = test system: RAW264.7; assay: Inhibition of RANKL-induced osteoclast differentiation in mouse RAW264.7 cells harboring ERalpha siRNA assessed as decrease in NFATc1 mRNA level at 20 uM after 24 hrs by qRT-PCR method; type: functional, cell-based

Calcium/calmodulin-dependent protein kinase kinase 2 (Mus musculus), sequence (Q8C078 2-588 limits assumed): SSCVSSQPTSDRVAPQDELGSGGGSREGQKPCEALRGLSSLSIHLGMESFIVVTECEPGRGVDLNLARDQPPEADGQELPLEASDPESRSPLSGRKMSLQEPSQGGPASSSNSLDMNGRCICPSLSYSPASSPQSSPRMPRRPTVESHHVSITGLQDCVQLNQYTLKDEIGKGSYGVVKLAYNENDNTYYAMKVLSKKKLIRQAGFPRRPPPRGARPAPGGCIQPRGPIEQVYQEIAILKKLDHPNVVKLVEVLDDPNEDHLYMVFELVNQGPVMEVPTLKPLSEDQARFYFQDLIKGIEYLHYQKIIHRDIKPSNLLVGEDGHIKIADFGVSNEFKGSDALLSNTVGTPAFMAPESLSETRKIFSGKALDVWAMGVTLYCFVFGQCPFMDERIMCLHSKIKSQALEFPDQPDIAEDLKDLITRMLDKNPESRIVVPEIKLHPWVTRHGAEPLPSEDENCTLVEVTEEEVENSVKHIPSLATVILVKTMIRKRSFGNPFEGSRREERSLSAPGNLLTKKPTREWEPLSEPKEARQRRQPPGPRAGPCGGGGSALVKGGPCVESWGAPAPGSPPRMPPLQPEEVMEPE
5'-AMP-activated protein kinase catalytic subunit alpha-1 (Mus musculus), sequence (Q5EG47 whole entry): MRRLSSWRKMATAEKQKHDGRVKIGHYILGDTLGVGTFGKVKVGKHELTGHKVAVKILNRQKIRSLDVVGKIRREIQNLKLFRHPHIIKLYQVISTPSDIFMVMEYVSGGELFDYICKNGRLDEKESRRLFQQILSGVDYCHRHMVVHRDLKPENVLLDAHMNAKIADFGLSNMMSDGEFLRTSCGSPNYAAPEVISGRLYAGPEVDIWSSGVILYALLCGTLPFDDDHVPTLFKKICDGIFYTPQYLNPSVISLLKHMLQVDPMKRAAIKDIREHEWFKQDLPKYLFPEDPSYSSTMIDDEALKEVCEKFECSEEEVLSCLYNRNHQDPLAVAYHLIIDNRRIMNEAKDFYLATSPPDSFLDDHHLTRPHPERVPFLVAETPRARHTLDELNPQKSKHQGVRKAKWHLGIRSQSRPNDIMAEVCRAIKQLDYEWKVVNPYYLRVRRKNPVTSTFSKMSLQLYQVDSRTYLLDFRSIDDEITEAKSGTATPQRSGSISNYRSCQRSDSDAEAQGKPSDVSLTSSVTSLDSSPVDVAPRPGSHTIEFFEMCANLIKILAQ

Activity [7]: Active | inhibition [24]: inactive
SMILES: COc1cc(C2Oc3c(OC)cc(/C=C/CO)cc3C2CO)ccc1O (stereo unspecified)
inhibition [1]: Active | inhibition [2]: Active | inhibition [3]: inactive | inhibition [4]: Active | inhibition [5]: Active | inhibition [6]: Active | inhibition [8]: Dose-dependent effect | inhibition [9]: Active | inhibition [10]: inactive | inhibition [11]: Dose-dependent effect | Activity [12]: Active | inhibition [13]: inactive | inhibition [14]: Active | inhibition [15]: Active | inhibition [16]: Active | inhibition [17]: inactive | Ratio IC50 [18]: 4.63 | inhibition [19]: Dose-dependent effect | inhibition [20]: Active | inhibition [21]: inactive | inhibition [22]: inactive | inhibition [23]: Dose-dependent effect | inhibition [25]: inactive | inhibition [26]: inactive

From ChEMBL document CHEMBL4145608, “Dehydrodiconiferyl Alcohol Inhibits Osteoclast Differentiation and Ovariectomy-Induced Bone Loss through Acting as an Estrogen Receptor Agonist” (J Nat Prod, 2018)
